US6548499B1, “Substituted quinoxaline derivatives as interleukin-8 receptor antagonists” (Millennium Pharmaceuticals, Inc., priority 1998, dated 2003)

Assays:
human neutrophils [1] = test: IL-8 chemotaxis assay; format: cell-based; conditions: freshly isolated human neutrophils, rhIL-8 as chemoattractant, 30 minutes at 37° C.
Procedure: Compounds of Formula I and II were evaluated for their effect on chemotaxis using methodology known in the art, e.g., Carr M. W., Roth S. J., Luther E., Rose S. S., and Springer T. A., “Monocyte chemoattractant protein 1 acts as a T-lymphocyte chemoattractant.” Proc. Natl. Acad Sci. USA, 1994;91:3652; Qin S., Larosa G., Campbell J. J. et al., “Expression of MCP-1 and IL-8 receptors on subset on T-cells, and correlation with transendothelial chemotactic potential,” Eur. J. Immu., 1996;26:640.
Briefly, freshly isolated human neutrophils were resuspended in chemotaxis buffer, which is made of one part of RPMI 1640 medium, one part of Medium 199, and 0.5% BSA. The cells were incubated with or without compounds for 5 minutes. Similarly, rhIL-8 was incubated in a separate plate, then transferred into lower chambers of chemotaxis plate. Neutrophils were added onto the top chamber. The plates were incubated at 37° C. for 30 minutes. The top chamber was then removed and the plate frozen at −80° C. for 30 minutes. After thawing, migrated cells were stained with Cytoquant Cell Proliferation Assay Kit (Molecular Probes No. C-7026) and quantitated by reading the plate on a fluorescent plate reader.

human neutrophils [2] = test: IL-8 calcium flux assay; format: cell-based; conditions: @ 11 μM; human neutrophils stimulated with human IL-8
Procedure: Compounds of Formula I and II were evaluated for their effect on calcium flux using methodology known in the art, e.g., Neote K., DiGregorio D., Mak J. Y., Horuk R., and Schall T. J., “Molecular cloning, functional expression, and signaling characteristics of a C—C chemokine receptor,” Cell, 1993;72:415.
Briefly, human neutrophils were incubated with the fluorescence dye FLUO-3 for 1 hour. The cells were washed after this loading period, resuspended in HANKs buffer, and loaded into a 96-well plate. Compound was added to each well. After a 2-minute incubation period, the cells were stimulated with human IL-8 and the calcium flux response recorded and quantified.

Row | Compound | melting point | other results
1 | CN(C)C1CCC(Nc2nc3cc(Cl)c(Cl)cc3nc2-c2ccccn2)CC1.Cl (stereo not drawn) | 180 to 182 °C | –
2 | Cl.N[C@H]1CC[C@H](Nc2nc3cc(Cl)c(Cl)cc3nc2-c2ccccn2)CC1 | 280 to 282 °C (dec.) | –
3 | Cl.Clc1cc2nc(-c3ccccn3)c(N3CCC(N4CCCCC4)CC3)nc2cc1Cl | 275 to 277 °C (dec.) | –
4 | CCN(CC)CCCCNc1nc2cc(Cl)c(Cl)cc2nc1-c1ccc(Cl)s1.Cl | 98 to 100 °C | –
5 | CCCc1ccc(-c2nc3cc(Cl)c(Cl)cc3nc2NCCCCN(CC)CC)s1.Cl | 165 to 167 °C | –
6 | CCN(CC)CCCCNc1nc2cc(Cl)c(Cl)cc2nc1-c1cc2ccccc2o1.Cl | 220 °C | –
7 | 6-Chloro-N-[4-(dimethylamino)cyclohexyl]-3-(2-pyridinyl)-2-quinoxalinamine and 7-Chloro-N-[4-(dimethylamino)cyclohexyl]-3-(2-pyridinyl)-2-quinoxalinamine, Dihydrochloride, Hydrate [Example 1] | – | IC50 (human neutrophils [1]): 0.89 µM; IL-8 Ca+2 Flux % Inhibition (μM) (human neutrophils [2]): 34% @ 11
8 | CC(=O)N(C)c1ccc(Nc2nc3ccccc3nc2-c2ccccn2)cc1 [Example 9, N-Methyl-N-[4-[[3-(2-pyridinyl)-2-quinoxalinyl]amino]phenyl]-acetamide] | 165 to 166 °C | –
9 | CCN(CC)Cc1ccc(Nc2nc3cc(Cl)c(Cl)cc3nc2-c2ccccn2)cc1 [Example 13, (6,7-Dichloro-3-pyridin-2-yl-quinoxalin-2-yl)-(4-diethylaminomethyl-phenyl)-amine] | 250 to 252 °C (dec.) | –
10 | CN(C)CCCNc1nc2cc(Cl)c(Cl)cc2nc1-c1ccco1 [Example 14, N′-(6,7-Dichloro-3-furan-2-yl-quinoxalin-2-yl)-N,N-dimethyl-propane-1,3-diamine] | – | IC50 (human neutrophils [1]; Neutrophil, 0.5 h): 1.8 µM
11 | CN(C)CCCNc1nc2cc(Cl)c(Cl)cc2nc1-c1cccs1 [Example 15, N′-(6,7-Dichloro-3-thiophen-2-yl-quinoxalin-2-yl)-N,N-dimethyl-propane-1,3-diamine] | – | IC50 (human neutrophils [1]; Neutrophil, 0.5 h): 0.32 µM
12 | CN(C)CCCCNc1nc2cc(F)c(F)cc2nc1-c1cccs1 [Example 17, N′-(6,7-Difluoro-3-thiophen-2-yl-quinoxalin-2-yl)-N,N-dimethyl-butane-1,4-diamine] | 175 to 177 °C | –
13 | CCN(CC)CCCCNc1nc2cc(Cl)c(Cl)cc2nc1-c1cc2ccccc2s1 [Example 25, N′(3-Benzo[b]thiophen-2-yl-6,7-dichloro-quinoxalin-2-yl)-N,N-4-diethyl-butane-1,4-diamine] | – | IC50 (human neutrophils [1]; Neutrophil, 0.5 h): 0.31 µM
14 | CCN(CC)CCCCNc1nc2cc(Cl)c(Cl)cc2nc1-c1ccc(C)s1 [Example 28, N′-[6,7-Dichloro-3-(5-methyl-thiophen-2-yl)quinoxalin-2-yl]-N,N-diethyl-butane-1,4-diamine] | – | IC50 (human neutrophils [1]; Neutrophil, 0.5 h): 0.4 µM
15 | CCN(CC)CCCCNc1nc2cc(Cl)c(Cl)cc2nc1-c1ccc(-c2cccs2)s1 [Example 34, N′-(3-[2,2′]Bithiophenyl-5-yl-6,7-dichloro-quinoxalin-2-yl)-N,N-diethyl-butane-1,4-diamine] | – | IC50 (human neutrophils [1]; Neutrophil, 0.5 h): 0.08 µM

Now from value to compound, other results behind:

Row | melting point | Compound | other results
16 | 63 to 65 °C | c1ccc(-c2nc3ccccc3nc2NC2CN3CCC2CC3)nc1 (stereo not drawn) | –
17 | 145 to 147 °C | CCN(CC)CCCCNc1nc2cc(Cl)c(Cl)cc2nc1-c1cc2ccccc2[nH]1.Cl | –
18 | 134 to 136 °C | CCN(CC)CCCCNc1nc2cc(Cl)c(Cl)cc2nc1-c1cccc2c1sc1ccccc12.Cl | –
19 | 85 to 86 °C | c1ccc(-c2nc3ccccc3nc2NCCCn2ccnc2)nc1 [Example 3, N-[3-(1H-Imidazol-1-yl)propyl]-3-(2-pyridinyl)-2-quinoxalinamine] | –
20 | 186 to 188 °C | CN1CCCC1CCNc1nc2ccccc2nc1-c1ccccn1 (stereo not drawn) [Example 4, N-[2-(1-Methyl-2-pyrrolidinyl)ethyl]-3-(2-pyridinyl)-2-quinoxalinamine] | –
21 | 205 to 206 °C | c1ccc(-c2nc3ccccc3nc2Nc2ccc(N3CCOCC3)cc2)nc1 [Example 6, N-[4-(4-Morpholinyl)phenyl]-3-(2-pyridinyl)-2-quinoxalinamine] | –
22 | 142 to 144 °C | c1ccc(-c2nc3ccccc3nc2NCc2ccncc2)nc1 [Example 7, N-(4-Pyridinylmethyl)-3-(2-pyridinyl)-2-quinoxalinamine] | –
23 | 169 to 170 °C | CN(C)c1ccc(Nc2nc3ccccc3nc2-c2ccccn2)cc1 [Example 8, N-[4-(Dimethylamino)phenyl]-3-(2-pyridinyl)-2-quinoxalinamine] | –
